PubChem BioAssay (NCI)
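Grown in 96-well plates, cells were treated for 48 hours with each compound at five concentrations. Insufficient inhibition: endpoint recorded as highest concentration tested. The concentration for 50% growth inhibition is given as GI50. TGI denotes the concentration required for complete inhibition of growth.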

Tests used:
Assay in all cases: NCI-60 cell line screen, 48 h
786-0 renal = tested on: 786-0 renal
A498 renal = tested on: A498 renal
A549 NSCLC = tested on: A549 NSCLC
ACHN renal = tested on: ACHN renal
BT-549 breast = tested on: BT-549 breast
CAKI-1 renal = tested on: CAKI-1 renal
CCRF-CEM leukemia = tested on: CCRF-CEM leukemia
COLO 205 colon = tested on: COLO 205 colon
DU-145 prostate = tested on: DU-145 prostate
EKVX NSCLC = tested on: EKVX NSCLC
HCC-2998 colon = tested on: HCC-2998 colon
HCT-116 colon = tested on: HCT-116 colon
HCT-15 colon = tested on: HCT-15 colon
HL-60(TB) leukemia = tested on: HL-60(TB) leukemia
HOP-62 NSCLC = tested on: HOP-62 NSCLC
HOP-92 NSCLC = tested on: HOP-92 NSCLC
HS 578T breast = tested on: HS 578T breast
HT29 colon = tested on: HT29 colon
IGROV1 ovarian = tested on: IGROV1 ovarian
K-562 leukemia = tested on: K-562 leukemia
KM12 colon = tested on: KM12 colon
LOX IMVI melanoma = tested on: LOX IMVI melanoma
M14 melanoma = tested on: M14 melanoma
MALME-3M melanoma = tested on: MALME-3M melanoma
MCF7 breast = tested on: MCF7 breast
MDA-MB-231 breast = tested on: MDA-MB-231 breast
MDA-MB-435 = tested on: MDA-MB-435
MOLT-4 leukemia = tested on: MOLT-4 leukemia
NCI-H226 lung = tested on: NCI-H226 lung
NCI-H23 lung = tested on: NCI-H23 lung
NCI-H460 lung = tested on: NCI-H460 lung
NCI-H522 lung = tested on: NCI-H522 lung
NCI/ADR-RES ovarian = tested on: NCI/ADR-RES ovarian
OVCAR-3 ovarian = tested on: OVCAR-3 ovarian
OVCAR-4 ovarian = tested on: OVCAR-4 ovarian
OVCAR-5 ovarian = tested on: OVCAR-5 ovarian
OVCAR-8 ovarian = tested on: OVCAR-8 ovarian
PC-3 prostate = tested on: PC-3 prostate
RPMI-8226 leukemia = tested on: RPMI-8226 leukemia
RXF 393 renal = tested on: RXF 393 renal
SF-268 CNS = tested on: SF-268 CNS
SF-295 CNS = tested on: SF-295 CNS
SF-539 CNS = tested on: SF-539 CNS
SK-MEL-2 melanoma = tested on: SK-MEL-2 melanoma
SK-MEL-28 melanoma = tested on: SK-MEL-28 melanoma
SK-MEL-5 melanoma = tested on: SK-MEL-5 melanoma
SK-OV-3 ovarian = tested on: SK-OV-3 ovarian
SN12C renal = tested on: SN12C renal
SNB-19 CNS = tested on: SNB-19 CNS
SNB-75 CNS = tested on: SNB-75 CNS
SR leukemia = tested on: SR leukemia
SW-620 colon = tested on: SW-620 colon
T-47D breast = tested on: T-47D breast
TK-10 renal = tested on: TK-10 renal
U251 CNS = tested on: U251 CNS
UACC-257 melanoma = tested on: UACC-257 melanoma
UACC-62 melanoma = tested on: UACC-62 melanoma
UO-31 renal = tested on: UO-31 renal

CN1CCN(Cc2ccc(NC(=O)c3cncc(C#Cc4cnc5ccc(OCC(F)F)nn45)c3)cc2C(F)(F)F)CC1
GI50 (786-0 renal): 451 nM | TGI (786-0 renal): 1100 nM | GI50 (A498 renal): 1370 nM | TGI (A498 renal): 2540 nM | GI50 (A549 NSCLC): 221 nM | TGI (A549 NSCLC): 612 nM | GI50 (ACHN renal): 482 nM | TGI (ACHN renal): 1210 nM | GI50 (BT-549 breast): 930 nM | TGI (BT-549 breast): 1690 nM | GI50 (CAKI-1 renal): 473 nM | TGI (CAKI-1 renal): 1390 nM | GI50 (CCRF-CEM leukemia): 192 nM | TGI (CCRF-CEM leukemia): 4310 nM | GI50 (COLO 205 colon): 428 nM | TGI (COLO 205 colon): 1150 nM | GI50 (DU-145 prostate): 339 nM | TGI (DU-145 prostate): 929 nM | GI50 (EKVX NSCLC): 348 nM | TGI (EKVX NSCLC): 1020 nM | GI50 (HCC-2998 colon): 516 nM | TGI (HCC-2998 colon): 1610 nM | GI50 (HCT-116 colon): 164 nM | TGI (HCT-116 colon): 606 nM | GI50 (HCT-15 colon): 207 nM | TGI (HCT-15 colon): 909 nM | GI50 (HL-60(TB) leukemia): 222 nM | TGI (HL-60(TB) leukemia): 724 nM | GI50 (HOP-62 NSCLC): 729 nM | TGI (HOP-62 NSCLC): 1640 nM | GI50 (HOP-92 NSCLC): 101 nM | TGI (HOP-92 NSCLC): 359 nM | GI50 (HS 578T breast): 944 nM | TGI (HS 578T breast): 3200 nM | GI50 (HT29 colon): 282 nM | TGI (HT29 colon): 1000 nM | GI50 (IGROV1 ovarian): 242 nM | TGI (IGROV1 ovarian): 1030 nM | GI50 (K-562 leukemia): 5 nM | TGI (K-562 leukemia): 818 nM | GI50 (KM12 colon): 5 nM | TGI (KM12 colon): 739 nM | GI50 (LOX IMVI melanoma): 235 nM | TGI (LOX IMVI melanoma): 838 nM | GI50 (M14 melanoma): 167 nM | TGI (M14 melanoma): 619 nM | GI50 (MALME-3M melanoma): 120 nM | TGI (MALME-3M melanoma): 485 nM | GI50 (MCF7 breast): 110 nM | TGI (MCF7 breast): 649 nM | GI50 (MDA-MB-231 breast): 181 nM | TGI (MDA-MB-231 breast): 841 nM | GI50 (MDA-MB-435): 218 nM | TGI (MDA-MB-435): 812 nM | GI50 (MOLT-4 leukemia): 299 nM | TGI (MOLT-4 leukemia): 2790 nM | GI50 (NCI-H226 lung): 451 nM | TGI (NCI-H226 lung): 1270 nM | GI50 (NCI-H23 lung): 340 nM | TGI (NCI-H23 lung): 1230 nM | GI50 (NCI-H460 lung): 369 nM | TGI (NCI-H460 lung): 1070 nM | GI50 (NCI-H522 lung): 666 nM | TGI (NCI-H522 lung): 1530 nM | GI50 (NCI/ADR-RES ovarian): 1040 nM | TGI (NCI/ADR-RES ovarian): 5090 nM | GI50 (OVCAR-3 ovarian): 460 nM | TGI (OVCAR-3 ovarian): 1260 nM | GI50 (OVCAR-4 ovarian): 562 nM | TGI (OVCAR-4 ovarian): 1510 nM | GI50 (OVCAR-5 ovarian): 680 nM | TGI (OVCAR-5 ovarian): 1890 nM | GI50 (OVCAR-8 ovarian): 705 nM | TGI (OVCAR-8 ovarian): 1560 nM | GI50 (PC-3 prostate): 457 nM | TGI (PC-3 prostate): 1970 nM | GI50 (RPMI-8226 leukemia): 515 nM | TGI (RPMI-8226 leukemia): 2180 nM | GI50 (RXF 393 renal): 379 nM | TGI (RXF 393 renal): 1060 nM | GI50 (SF-268 CNS): 520 nM | TGI (SF-268 CNS): 1430 nM | GI50 (SF-295 CNS): 387 nM | TGI (SF-295 CNS): 1200 nM | GI50 (SF-539 CNS): 438 nM | TGI (SF-539 CNS): 1100 nM | GI50 (SK-MEL-2 melanoma): 600 nM | TGI (SK-MEL-2 melanoma): 1280 nM | GI50 (SK-MEL-28 melanoma): 670 nM | TGI (SK-MEL-28 melanoma): 1520 nM | GI50 (SK-MEL-5 melanoma): 511 nM | TGI (SK-MEL-5 melanoma): 1220 nM | GI50 (SK-OV-3 ovarian): 1510 nM | TGI (SK-OV-3 ovarian): 3780 nM | GI50 (SN12C renal): 500 nM | TGI (SN12C renal): 1170 nM | GI50 (SNB-19 CNS): 1090 nM | TGI (SNB-19 CNS): 2850 nM | GI50 (SNB-75 CNS): 580 nM | TGI (SNB-75 CNS): 1260 nM | GI50 (SR leukemia): 206 nM | TGI (SR leukemia): 1100 nM | GI50 (SW-620 colon): 275 nM | TGI (SW-620 colon): 1200 nM | GI50 (T-47D breast): 419 nM | TGI (T-47D breast): 1170 nM | GI50 (TK-10 renal): 749 nM | TGI (TK-10 renal): 1460 nM | GI50 (U251 CNS): 646 nM | TGI (U251 CNS): 1340 nM | GI50 (UACC-257 melanoma): 282 nM | TGI (UACC-257 melanoma): 963 nM | GI50 (UACC-62 melanoma): 630 nM | TGI (UACC-62 melanoma): 1330 nM | GI50 (UO-31 renal): 571 nM | TGI (UO-31 renal): 1200 nM
